In brackets after ≈: the same amount, converted by molar mass. Like-named read-outs stand apart in the source and are kept apart here.
Assays:
[1] = Bulk stability of Form C over 1 week; format: physicochemical; details: for Bulk (XRPD) / Color / Purity, Bulk (HPLC): Solid state
Experimental: Bulk stability of Form C was evaluated at 25° C./92% RH in an open container, at 40° C./75% RH in an open container and at 60° C. in a tight container over 1 week.

[2] = Solubility in solvents and mixture solvents; format: physicochemical
Text: As there may be potential Form A/H (Anhydrate) or Form I (THF solvate) in water or THF system according to the polymorph screening report, the use of water and THF were avoided in following study. […]

[3] = Hygroscopicity by dynamic vapor sorption (DVS); format: physicochemical
Experimental: Dynamic vapor sorption (DVS) was performed on an Intrinsic, Advantage or Adventure with an oven temperature of 25° C. using water as a solvent. The sample mass was about 5-10 mg using the following method: • Cycle: 40-0-95-0-40% RH • Stage Step: 10% • Equilibrium: 0.002 dm/dt (%/min) • Minimum dm/dt stability duration: 60 min • Maximum dm/dt stage time: 360 min. Analysis of Polymorphs
Hygroscopicity of Form C was evaluated by dynamic vapor sorption (DVS) test at 25° C. Form C is non-hygroscopic below 90% relative humidity (RH). Form C absorbs about 0.2% water in 95% RH at 25° C.

[4] = Interconversion of polymorphs (heating, dehydration, humidity, equilibration); format: physicochemical
Text: In total, 15 forms were identified to be polymorphs or pseudo-polymorphs of the free form, including seven anhydrates, Forms A, C, H, J, K. L and O; four hydrates, Forms B, F, M and N; and three solvates, Forms D, E and I. In addition, a metastable form, Form G, and an amorphous form were also obtained.
The interconversion relation of polymorphs identified is outlined in FIG. 5.

[5] = Competitive equilibration experiments of anhydrates; details: at both 25° C. and 50° C.
Experimental: Relative stability of the anhydrate Forms A, C, H and J was investigated with competitive equilibration experiments.
Relative stability of the anhydrates Forms C, K and L was investigated with competitive equilibration experiments.
To determine relative stability of anhydrates, competitive equilibration experiments were conducted in different solvent systems.
About 2 mg of each anhydrate was added to 0.3-0.4 mL saturated solutions of selected solvents. Obtained suspensions were stirred at 25° C. for 3-10 days, respectively. Solid parts (wet cakes) were isolated by centrifugation filtration and investigated by XRPD.

[6] = 25° C./92% RH, open container, 1 week
[7] = 40° C./75% RH, open container, 1 week
[8] = 60° C., tight container, 1 week

With `Cc1nc(-c2c[nH]c3c(C#N)cccc23)cnc1OCC(C)(C)O` [Form C, 3-(5-(2-hydroxy-2-methylpropoxy)-6-methylpyrazin-2-yl)-1H-indole-7-carbonitrile] the Bulk stability ([1]; 25° C./92% RH open, 40° C./75% RH open, 60° C. tight container, 1 week) was “physically and chemically stable”, the “Bulk (XRPD)” value [1, 6] was “Form C” and the Color [1, 6] was “No color change”. For the same compound, the “Purity, Bulk (HPLC)” value [1, 6] was 99.2%, the “Bulk (XRPD)” value [1, 7] was “Form C” and the Color [1, 7] was “No color change”. The “Purity, Bulk (HPLC)” value [1, 7] was 99.1%, the “Bulk (XRPD)” value [1, 8] was “Form C” and the Color [1, 8] was “No color change”. The “Purity, Bulk (HPLC)” value [1, 8] was 99.2%, the Initial purity ([1]; before stress) was 99.2% and the XRPD ([2]; 2-ME-THF/n-hep mixtures, 50 ° C. (printed at 4/0.5, probably merged for all rows)) was “Form C”. The Solubility ([2]; 2-MeTHF, 25° C.) was 117 mg/mL solvent, the Solubility ([2]; 2-MeTHF, 50° C.) was 154 mg/mL solvent and the Solubility ([2]; 2-MeTHF/n-heptane 1/1 (v/v), organic solvent or mixture, thermodynamic from solid, 2-ME-THF/n-hep = 1/1 (v/v), 25 ° C., read-out: Solubility) was 13000 µg/mL (≈ 40.3 mM). The Solubility ([2]; 2-MeTHF/n-heptane 1/2 (v/v), organic solvent or mixture, thermodynamic from solid, 2-ME-THF/n-hep = 1/2 (v/v), 25 ° C., read-out: Solubility) was ~4000 µg/mL (≈ 12.4 mM), the Solubility ([2]; 2-MeTHF/n-heptane 1/3 (v/v), organic solvent or mixture, thermodynamic from solid, 2-ME-THF/n-hep = 1/3 (v/v), 25 ° C., read-out: Solubility) was ~2000 µg/mL (≈ 6.2 mM) and the Solubility ([2]; 2-MeTHF/n-heptane 4/0.5 (v/v), organic solvent or mixture, thermodynamic from solid, 2-ME-THF/n-hep = 4/0.5 (v/v), 50 ° C., read-out: Solubility) was 122000 µg/mL (≈ 378 mM). For the same compound, the Solubility ([2]; 2-MeTHF/n-heptane 4/1 (v/v), organic solvent or mixture, thermodynamic from solid, 2-ME-THF/n-hep = 4/1 (v/v), 50 ° C., read-out: Solubility) was 90000 µg/mL (≈ 279 mM), the Solubility ([2]; 2-MeTHF/n-heptane 4/2 (v/v), organic solvent or mixture, thermodynamic from solid, 2-ME-THF/n-hep = 4/2 (v/v), 50 ° C., read-out: Solubility) was 49000 µg/mL (≈ 152 mM) and the Solubility ([2]; 2-MeTHF/n-heptane 4/4 (v/v), organic solvent or mixture, thermodynamic from solid, 2-ME-THF/n-hep = 4/4 (v/v), 50 ° C., read-out: Solubility) was 21000 µg/mL (≈ 65.1 mM). The Solubility ([2]; 2-MeTHF/n-heptane 4/8 (v/v), organic solvent or mixture, thermodynamic from solid, 2-ME-THF/n-hep = 4/8 (v/v), 50 ° C., read-out: Solubility) was 10000 µg/mL (≈ 31 mM), the Solubility ([2]; 2-MeTHF/n-heptane 4/12 (v/v), organic solvent or mixture, thermodynamic from solid, 2-ME-THF/n-hep = 4/12 (v/v), 50 ° C., read-out: Solubility) was 5000 µg/mL (≈ 15.5 mM) and the Solubility ([2]; Acetone, 25° C.) was 66 mg/mL solvent. It also gave a Solubility ([2]; Acetone, 50° C.) of 122 mg/mL solvent, a Solubility ([2]; EA, 25° C.) of 32 mg/mL solvent and a Solubility ([2]; EA, 50° C.) of 58 mg/mL solvent. The XRPD ([2]; EA, 50° C. (cell printed at this row, probably merged downwards)) was “Form C”, the Solubility ([2]; Ethanol, 25° C.) was 27 mg/mL solvent and the Solubility ([2]; Ethanol, 50° C.) was 64 mg/mL solvent. The Solubility ([2]; Heptane, 25° C.) was ~2 mg/mL solvent, the Solubility ([2]; Heptane, 50° C.) was ~3 mg/mL solvent and the Solubility ([2]; IPA, 25° C.) was 14 mg/mL solvent. It also gave a Solubility ([2]; IPA, 50° C.) of 29 mg/mL solvent, a Solubility ([2]; MCH, 25° C.) of ~3 mg/mL solvent and a Solubility ([2]; MCH, 50° C.) of ~3 mg/mL solvent. It also gave a Solubility ([2]; MEK, 25° C.) of 63 mg/mL solvent, a Solubility ([2]; MEK, 50° C.) of 110 mg/mL solvent and a Solubility ([2]; MEK/n-heptane 1/1 (v/v), organic solvent or mixture, thermodynamic from solid, MEK/n-hep = 1/1 (v/v), 25 ° C., read-out: Solubility) of 16000 µg/mL (≈ 49.6 mM). For the same compound, the Solubility ([2]; MEK/n-heptane 1/2 (v/v), organic solvent or mixture, thermodynamic from solid, MEK/n-hep = 1/2 (v/v), 25 ° C., read-out: Solubility) was 6000 µg/mL (≈ 18.6 mM), the Solubility ([2]; MEK/n-heptane 1/3 (v/v), organic solvent or mixture, thermodynamic from solid, MEK/n-hep = 1/3 (v/v), 25 ° C., read-out: Solubility) was ~3000 µg/mL (≈ 9.31 mM) and the Solubility ([2]; MIBK, 25° C.) was 21 mg/mL solvent. For the same compound, the Solubility ([2]; MIBK, 50° C.) was 28 mg/mL solvent, the Solubility ([2]; THF, 25° C.) was 247 mg/mL solvent and the Solubility ([2]; THF, 50° C.) was >200 mg/mL solvent. The Solubility ([2]; Toluene, 25° C.) was 5 mg/mL solvent, the Solubility ([2]; Toluene, 50° C.) was 5 mg/mL solvent and the XRPD ([2]; Water, 25° C. (cell printed at this row, probably merged downwards)) was “Form C”. For the same compound, the Solubility ([2]; Water, 25° C., read-out: Solubility) was ~1000 µg/mL (≈ 3.1 mM), the Solubility ([2]; Water, 50° C.) was ~0 mg/mL solvent and the XRPD ([2]; Water, 50° C. (cell printed at this row, probably merged downwards)) was “Form C”. It also gave a Solubility ([2]; acetone/n-heptane 1/1 (v/v), organic solvent or mixture, thermodynamic from solid, Acetone/n-hep = 1/1 (v/v), 25 ° C., read-out: Solubility) of 18000 µg/mL (≈ 55.8 mM), a Solubility ([2]; acetone/n-heptane 1/2 (v/v), organic solvent or mixture, thermodynamic from solid, Acetone/n-hep = 1/2 (v/v), 25 ° C., read-out: Solubility) of 10000 µg/mL (≈ 31 mM) and a Solubility ([2]; acetone/n-heptane 1/3 (v/v), organic solvent or mixture, thermodynamic from solid, Acetone/n-hep = 1/3 (v/v), 25 ° C., read-out: Solubility) of 5000 µg/mL (≈ 15.5 mM). The Solubility in words ([2]; in acetone, THF, 2-MeTHF, and MEK) was “high solubility”, the Solubility in words ([2]; in water, n-heptane, and MCH) was “poor solubility” and the XRPD ([2]; mixture solvents, 25 ° C. (printed at Acetone/MCH = 1/1, probably merged for all rows)) was “Form C”. For the same compound, the Solubility ([2]; n-PrOH, 25° C.) was 21 mg/mL solvent, the Solubility ([2]; n-PrOH, 50° C.) was 48 mg/mL solvent and the Solubility ([2]; organic solvent or mixture, thermodynamic from solid, 2-MeTHF/MCH = 1/1 (v/v), 25 ° C., read-out: Solubility) was 18000 µg/mL (≈ 55.8 mM). It also gave a Solubility ([2]; organic solvent or mixture, thermodynamic from solid, 2-MeTHF/MCH = 1/2 (v/v), 25 ° C., read-out: Solubility) of 6000 µg/mL (≈ 18.6 mM), a Solubility ([2]; organic solvent or mixture, thermodynamic from solid, 2-MeTHF/MCH = 1/3 (v/v), 25 ° C., read-out: Solubility) of ~4000 µg/mL (≈ 12.4 mM) and a Solubility ([2]; organic solvent or mixture, thermodynamic from solid, Acetone/MCH = 1/1 (v/v), 25 ° C., read-out: Solubility) of 30000 µg/mL (≈ 93.1 mM). The Solubility ([2]; organic solvent or mixture, thermodynamic from solid, Acetone/MCH = 1/2 (v/v), 25 ° C., read-out: Solubility) was 15000 µg/mL (≈ 46.5 mM), the Solubility ([2]; organic solvent or mixture, thermodynamic from solid, MEK/MCH = 1/1 (v/v), 25 ° C., read-out: Solubility) was 20000 µg/mL (≈ 62 mM) and the Solubility ([2]; organic solvent or mixture, thermodynamic from solid, MEK/MCH = 1/2 (v/v), 25 ° C., read-out: Solubility) was 9000 µg/mL (≈ 27.9 mM). For the same compound, the “Form after the DVS test” value ([3]; DVS at 25° C.) was “still in Form C”, the Hygroscopicity ([3]; DVS at 25° C., below 90% relative humidity (RH)) was “non-hygroscopic” and the Water absorbed ([3]; DVS, 95% RH at 25° C.) was “about 0.2%”. For the same compound, the “Stability compared to the other polymorph forms” value [4] was “most stable polymorph” and the “Relative thermodynamic stability of anhydrates” value [5] was “thermodynamically stable anhydrate”.

Reference: patent publication US12168650B2, “Crystalline forms of 3-(5-(2-hydroxy-2-methylpropoxy)-6-methylpyrazin-2-yl)-1H-indole-7-carbonitrile” (NIDO BIOSCIENCES, INC., priority 2022, dated 2024)
